# According to patent US6355799B1, “Substituted benzene compounds, process for their preparation, and herbicidal and defoliant compositions containing them” (ISK Americas Incorporated, priority 1997, dated 2002):
# Tests used:
# Type in all cases: in vivo
# [1] = test system: redroot pigweed (Amaranthus retroflexus, AMARE); assay: Pre-emerge test, greenhouse herbicide activity screening; conditions: pre-emerge, 14 days after application
# In short: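 Compounds in acetone were track-sprayed at 187 l/ha, 15–1000 g ai/ha, onto sandy loam pots. Pre-emerge seeds were sown one day before spraying, with surface watering afterwards. Post-emerge plants were at the 2–3 leaf stage and sprayed with 0.25% v/v non-ionic surfactant. Injury was rated 0–100 at 14 days.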
# [2] = test system: barnyardgrass (Echinochloa crus-galli, ECHCG); assay: as above; conditions: pre-emerge, 14 days after application
# In short: (§1)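 Plants grown in 10 cm pots of sandy loam mix received acetone-dissolved compounds through a moving flat-fan nozzle. Doses ranged from 15 to 1000 g ai/ha. Pre-emerge pots were seeded one day earlier, post-emerge pots 8–21 days earlier. Fourteen days on, each pot was graded 0–100 for damage.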
# [3] = test system: green foxtail (Setaria viridis, SETVI); assay: as above; conditions: pre-emerge, 14 days after application
# In short: as §1
# [4] = test system: ivyleaf morningglory (Ipomoea hederacea, IPOHE); assay: as above; conditions: pre-emerge, 14 days after application
# In short: as §1
# [5] = test system: johnsongrass (Sorghum halepense, SORHA); assay: as above; conditions: pre-emerge, 14 days after application
# In short: as §1
# [6] = test system: lambsquarters (Chenopodium album, CHEAL); assay: as above; conditions: pre-emerge, 14 days after application
# In short: as §1
# [7] = test system: large crabgrass (Digitaria sanguinalis, DIGSA); assay: as above; conditions: pre-emerge, 14 days after application
# In short: as §1
# [8] = test system: sicklepod (Cassia obtusifolia, CASOB); assay: as above; conditions: pre-emerge, 14 days after application
# In short: as §1
# [9] = test system: velvetleaf (Abutilon theophrasti, ABUTH); assay: as above; conditions: pre-emerge, 14 days after application
# In short: as §1
# [10] = test system: barnyardgrass (Echinochloa crus-galli, ECHCG); assay: Post-emerge test, greenhouse herbicide activity screening; conditions: post-emerge, 14 days after application, rating scale 0-100
# In short: as §1
# [11] = test system: green foxtail (Setaria viridis, SETVI); assay: as above; conditions: post-emerge, 14 days after application, rating scale 0-100
# In short: as §1
# [12] = test system: ivyleaf morningglory (Ipomoea hederacea, IPOHE); assay: as above; conditions: post-emerge, 14 days after application, rating scale 0-100
# In short: as §1
# [13] = test system: johnsongrass (Sorghum halepense, SORHA); assay: as above; conditions: post-emerge, 14 days after application, rating scale 0-100
# In short: as §1
# [14] = test system: large crabgrass (Digitaria sanguinalis, DIGSA); assay: as above; conditions: post-emerge, 14 days after application, rating scale 0-100
# In short: as §1
# [15] = test system: redroot pigweed (Amaranthus retroflexus, AMARE); assay: as above; conditions: post-emerge, 14 days after application
# In short: as §1
# [16] = test system: sicklepod (Cassia obtusifolia, CASOB); assay: as above; conditions: post-emerge, 14 days after application, rating scale 0-100
# In short: as §1
# [17] = test system: velvetleaf (Abutilon theophrasti, ABUTH); assay: as above; conditions: post-emerge, 14 days after application, rating scale 0-100
# In short: as §1
# [18] = test system: lambsquarters (Chenopodium album, CHEAL); assay: as above; conditions: post-emerge, 14 days after application, rating scale 0-100
# In short: as §1
# [19] = 250 g ai/ha, rating scale 0-100
compound,measurement,setting,value
"Cn1c(C(F)(F)F)cc(=O)n(-c2c(F)cc(Cl)cc2NC(=O)c2ccc3ccccc3c2)c1=O [Compound 2-145, 3-[4-chloro-6-fluoro-2-(2-naphthoylamino)phenyl]-1-methyl-6-trifluoromethyl-2,4(1H, 3H)-pyrimidinedione]",phytotoxicity rating AMARE,"[1]; 63 g ai/ha, scale 0-100",100
same,phytotoxicity rating AMARE,"[1]; 250 g ai/ha, scale 0-100",100
same,phytotoxicity rating ECHCG,"[2]; 63 g ai/ha, scale 0-100",35
same,phytotoxicity rating ECHCG,"[2]; 250 g ai/ha, scale 0-100",60
same,phytotoxicity rating SETVI,"[3]; 63 g ai/ha, scale 0-100",60
same,phytotoxicity rating SETVI,"[3]; 250 g ai/ha, scale 0-100",100
same,phytotoxicity rating IPOHE,"[4]; 63 g ai/ha, scale 0-100",10
same,phytotoxicity rating IPOHE,"[4]; 250 g ai/ha, scale 0-100",100
same,phytotoxicity rating SORHA,"[5]; 63 g ai/ha, scale 0-100",30
same,phytotoxicity rating SORHA,"[5]; 250 g ai/ha, scale 0-100",50
same,phytotoxicity rating CHEAL,"[6]; 63 g ai/ha, scale 0-100",100
same,phytotoxicity rating CHEAL,"[6]; 250 g ai/ha, scale 0-100",100
same,phytotoxicity rating DIGSA,"[7]; 63 g ai/ha, scale 0-100",90
same,phytotoxicity rating DIGSA,"[7]; 250 g ai/ha, scale 0-100",100
same,phytotoxicity rating CASOB,"[8]; 63 g ai/ha, scale 0-100",40
same,phytotoxicity rating CASOB,"[8]; 250 g ai/ha, scale 0-100",90
same,phytotoxicity rating ABUTH,"[9]; 63 g ai/ha, scale 0-100",90
same,phytotoxicity rating ABUTH,"[9]; 250 g ai/ha, scale 0-100",100
same,ECHCG phytotoxicity rating,[10]; 63 g ai/ha,0
same,ECHCG phytotoxicity rating,[10]; 250 g ai/ha,20
same,SETVI phytotoxicity rating,[11]; 63 g ai/ha,0
same,SETVI phytotoxicity rating,[11]; 250 g ai/ha,40
same,IPOHE phytotoxicity rating,[12]; 63 g ai/ha,100
same,IPOHE phytotoxicity rating,[12]; 250 g ai/ha,100
same,SORHA phytotoxicity rating,[13]; 63 g ai/ha,0
same,SORHA phytotoxicity rating,[13]; 250 g ai/ha,10
same,DIGSA phytotoxicity rating,[14]; 63 g ai/ha,0
same,DIGSA phytotoxicity rating,[14]; 250 g ai/ha,10
same,AMARE phytotoxicity rating,"[15]; 63 g ai/ha, rating scale 0-100",95
same,AMARE phytotoxicity rating,[15]; [19],100
same,CASOB phytotoxicity rating,[16]; 63 g ai/ha,100
same,CASOB phytotoxicity rating,[16]; 250 g ai/ha,100
same,ABUTH phytotoxicity rating,[17]; 63 g ai/ha,100
same,ABUTH phytotoxicity rating,[17]; 250 g ai/ha,100
"COc1c(Cl)cc(F)c(-n2c(=O)cc(C(F)(F)F)n(C)c2=O)c1OC(=O)c1ccc2ccccc2c1 [Compound 16-7, 3-[4-chloro-6fluoro-3-methoxy-2-(2-naphthoyloxy)phenyl]-1-methyl-6-trifluoromethyl-2,4(1H, 3H)-pyrimidinedione]",phytotoxicity rating AMARE,"[1]; 63 g ai/ha, rating scale 0-100",0
same,phytotoxicity rating AMARE,[1]; [19],50
same,phytotoxicity rating ECHCG,"[2]; 63 g ai/ha, rating scale 0-100",0
same,phytotoxicity rating ECHCG,[2]; [19],0
same,phytotoxicity rating SETVI,"[3]; 63 g ai/ha, rating scale 0-100",0
same,phytotoxicity rating SETVI,[3]; [19],0
same,phytotoxicity rating IPOHE,"[4]; 63 g ai/ha, rating scale 0-100",0
same,phytotoxicity rating IPOHE,[4]; [19],0
same,phytotoxicity rating SORHA,"[5]; 63 g ai/ha, rating scale 0-100",0
same,phytotoxicity rating SORHA,[5]; [19],0
same,phytotoxicity rating CHEAL,"[6]; 63 g ai/ha, rating scale 0-100",0
same,phytotoxicity rating CHEAL,[6]; [19],0
same,phytotoxicity rating DIGSA,"[7]; 63 g ai/ha, rating scale 0-100",0
same,phytotoxicity rating DIGSA,[7]; [19],0
same,phytotoxicity rating CASOB,"[8]; 63 g ai/ha, rating scale 0-100",0
same,phytotoxicity rating CASOB,[8]; [19],0
same,phytotoxicity rating ABUTH,"[9]; 63 g ai/ha, rating scale 0-100",0
same,phytotoxicity rating ABUTH,[9]; [19],0
same,Post-emerge Herbicidal Activity ECHCG (phytotoxicity rating),[10]; 63 g ai/ha,0
same,Post-emerge Herbicidal Activity ECHCG (phytotoxicity rating),[10]; 250 g ai/ha,0
same,Post-emerge Herbicidal Activity SETVI (phytotoxicity rating),[11]; 63 g ai/ha,0
same,Post-emerge Herbicidal Activity SETVI (phytotoxicity rating),[11]; 250 g ai/ha,0
same,Post-emerge Herbicidal Activity IPOHE (phytotoxicity rating),[12]; 63 g ai/ha,0
same,Post-emerge Herbicidal Activity IPOHE (phytotoxicity rating),[12]; 250 g ai/ha,30
same,Post-emerge Herbicidal Activity SORHA (phytotoxicity rating),[13]; 63 g ai/ha,0
same,Post-emerge Herbicidal Activity SORHA (phytotoxicity rating),[13]; 250 g ai/ha,0
same,Post-emerge Herbicidal Activity CHEAL (phytotoxicity rating),[18]; 63 g ai/ha,0
same,Post-emerge Herbicidal Activity CHEAL (phytotoxicity rating),[18]; 250 g ai/ha,0
same,Post-emerge Herbicidal Activity DIGSA (phytotoxicity rating),[14]; 63 g ai/ha,0
same,Post-emerge Herbicidal Activity DIGSA (phytotoxicity rating),[14]; 250 g ai/ha,0
same,Post-emerge Herbicidal Activity AMARE (phytotoxicity rating),"[15]; 63 g ai/ha, rating scale 0-100 (0 no damage, 100 complete death)",0
same,Post-emerge Herbicidal Activity AMARE (phytotoxicity rating),[15]; [19],0
same,Post-emerge Herbicidal Activity CASOB (phytotoxicity rating),[16]; 63 g ai/ha,0
same,Post-emerge Herbicidal Activity CASOB (phytotoxicity rating),[16]; 250 g ai/ha,30
same,Post-emerge Herbicidal Activity ABUTH (phytotoxicity rating),[17]; 63 g ai/ha,0
same,Post-emerge Herbicidal Activity ABUTH (phytotoxicity rating),[17]; 250 g ai/ha,0
